Results: US7709223B2, “Method for detecting bacteria with chromogenic substrates for β-D-ribofuranosidase” (priority 2001, dated 2010)
Where a name gives a salt, the structure may show the parent alone.

What was measured:
[1] = tested on: A. baumanii; experiment: Hydrolysis on Columbia agar with ferric ammonium citrate; type: cell-based; settings: A. baumanii ATCC 19606
Method: (§1) The chromogenic β-D-ribofuranoside substrate was added to Columbia agar at a substrate concentration of 300 mg/l. Ferric ammonium citrate was included at 500 mg/l. All ingredients were autoclaved at 116° C. for 20 minutes to ensure sterilisation. Agar plates were then prepared in 90 mm petri dishes. The substrate caused a yellow colouration of the agar.
(§2) For each strain tested, a bacterial suspension was prepared in sterile deionised water at an inoculum of approximately 1.5×10^8 colony forming units per ml. This was achieved using a densitometer. 1 μl of each bacterial suspension was then inoculated onto each plate using a multipoint inoculator. Strains were inoculated in parallel onto Columbia agar containing ferric ammonium citrate with no substrate (negative control).
(§3) After 18 hours incubation, strains were examined visually for the presence of colour. Any strains producing a black colouration on substrate containing media but not on the negative control plates were deemed to be hydrolysing the substrate.

[2] = tested on: Streptococcus oralis; experiment: as above; type: cell-based; settings: Streptococcus oralis NCTC11427
Method: as §1, §2, §3

[3] = tested on: Enterococcus casseflavus; experiment: as above; type: cell-based; settings: Enterococcus casseflavus NCTC 12361
Method: as §1, §2, §3

[4] = tested on: Vibrio alcaligenes; experiment: as above; type: cell-based; settings: Vibrio alcaligenes NCTC 12160
Method: as §1, §2, §3

[5] = tested on: P. penneri; experiment: as above; type: cell-based; settings: P. penneri PPE 1
Method: as §1, §2, §3

[6] = tested on: Streptococcus constellatus; experiment: as above; type: cell-based; settings: Streptococcus constellatus NCTC 11325
Method: as §1, §2, §3

[7] = tested on: Enterococcus mundtii; experiment: as above; type: cell-based; settings: Enterococcus mundtii NCTC 12363
Method: as §1, §2, §3

[8] = tested on: Enterococcus durans; experiment: as above; type: cell-based; settings: Enterococcus durans NCTC 8307
Method: as §1, §2, §3

[9] = tested on: Vibrio hollisae; experiment: as above; type: cell-based; settings: Vibrio hollisae NCTC 11640
Method: as §1, §2, §3

[10] = tested on: Vibrio mimicus; experiment: as above; type: cell-based; settings: Vibrio mimicus NCTC 11435
Method: as §1, §2, §3

[11] = tested on: Listeria ivanovii; experiment: as above; type: cell-based; settings: Listeria ivanovii PHLS wild
Method: as §1, §2, §3

[12] = tested on: Streptococcus crista; experiment: as above; type: cell-based; settings: Streptococcus crista NCTC 12479
Method: as §1, §2, §3

[13] = tested on: Arcanobacterium haemolyticus; experiment: as above; type: cell-based
Method: as §1, §2, §3

[14] = tested on: Haemolytic streptococcus A; experiment: as above; type: cell-based
Method: as §1, §2, §3

[15] = tested on: A. calcoaceticus; experiment: as above; type: cell-based; settings: A. calcoaceticus ATCC 7844
Method: as §1, §2, §3

[16] = tested on: Streptococcus gordonii; experiment: as above; type: cell-based; settings: Streptococcus gordonii NCTC 7865
Method: as §1, §2, §3

[17] = tested on: Streptococcus agalactiae; experiment: as above; type: cell-based; settings: Streptococcus agalactiae NCTC 8181
Method: as §1, §2, §3

[18] = tested on: Vibrio furnissii; experiment: as above; type: cell-based; settings: Vibrio furnissii NCTC 11218
Method: as §1, §2, §3

[19] = tested on: P. mirabilis; experiment: as above; type: cell-based
Method: as §1, §2, §3

[20] = tested on: Haemolytic streptococcus C; experiment: as above; type: cell-based
Method: as §1, §2, §3

[21] = tested on: C. diphtheriae; experiment: as above; type: cell-based, Corynebacterium diphtheriae
Method: as §1, §2, §3

[22] = tested on: Escherichia coli; experiment: Mixed culture on solid medium with substrate and ferric ion; type: cell-based; settings: mixed culture with Acinetobacter lwoffii
Method: (§4) The limitations of using a substrate which generates a diffusible end product after hydrolysis on a solid medium are known by those skilled in the art. […] For example a culture plate was prepared containing solid medium and the chromogenic enzyme substrate 3′,4′-dihydroxyflavone-4′-β-D-ribofuranoside along with ferric ion. A culture containing roughly equal numbers of Escherichia coli (β-D-ribofuranosidase positive) and Acinetobacter lwoffii (β-D-ribofuranosidase negative) was grown on the medium. […] The A. lwoffii colonies were colourless. It was possible to differentiate the two species even when the colonies were virtually coincident.

[23] = tested on: Acinetobacter lwoffii; experiment: as above; type: cell-based; settings: mixed culture with Escherichia coli
Method: as §4

[24] = tested on: K. pneumoniae; experiment: Hydrolysis on Columbia agar with ferric ammonium citrate; type: cell-based; parameters: β-Riboside (hydrolysis): key to the marks not given beside the values
Method: as §1, §2, §3

[25] = tested on: E. aerogenes; experiment: as above; type: cell-based; parameters: β-Riboside (hydrolysis): key to the marks not given beside the values
Method: as §1, §2, §3

[26] = tested on: Shigella sonnei; experiment: as above; type: cell-based; parameters: β-Riboside (hydrolysis): key to the marks not given beside the values
Method: as §1, §2, §3

[27] = tested on: E. coli; experiment: as above; type: cell-based; parameters: β-Riboside (hydrolysis): key to the marks not given beside the values
Method: as §1, §2, §3

[28] = tested on: Gram negative bacteria; experiment: Hydrolysis on Columbia agar with ferric ammonium citrate, strain panel; type: cell-based; settings: 120 Gram negative bacteria tested
Method: (§5) The ribofuranoside derivative of dihydroxyflavone was tested with 194 distinct strains of bacteria. The choice of bacteria included a wide range many of which are important pathogens or commensals commonly isolated from pathological samples.
as §1, §2, §3

[29] = tested on: Gram-positive bacteria; experiment: as above; type: cell-based; settings: Gram-positive bacteria tested
Method: as §5, §1, §2, §3

O=c1cc(-c2ccc(OC3OC(CO)C(O)C3O)c(O)c2)oc2ccccc12 [DHF-riboside, 3′,4′-Dihydroxyflavone-4′-β-D-ribofuranoside sodium salt]
β-Riboside (hydrolysis) [1]: − | β-Ribofuranoside (hydrolysis) [2]: − | β-Ribofuranoside (hydrolysis) [3]: − | β-Riboside (hydrolysis) [4]: − | β-Riboside (hydrolysis) [5]: − | β-Ribofuranoside (hydrolysis) [6]: − | β-Ribofuranoside (hydrolysis) [7]: + | β-Ribofuranoside (hydrolysis) [8]: − | β-Riboside (hydrolysis) [9]: − | β-Riboside (hydrolysis) [10]: − | β-Ribofuranoside (hydrolysis) [11]: + | β-Ribofuranoside (hydrolysis) [12]: − | Activity with the substrate ([13]; Arcanobacterium haemolyticum): active | β-Ribofuranoside (hydrolysis) ([13]; Arcanobacterium haemolyticus NCTC 52): + | β-Ribofuranoside (hydrolysis) ([14]; Reference No. 1): − | β-Ribofuranoside (hydrolysis) ([14]; Reference No. 2): − | β-Ribofuranoside (hydrolysis) ([14]; Reference No. 3): − | β-Riboside (hydrolysis) [15]: − | β-Ribofuranoside (hydrolysis) [16]: − | β-Ribofuranoside (hydrolysis) [17]: − | β-Riboside (hydrolysis) [18]: − | β-Riboside (hydrolysis) ([19]; P. mirabilis NCTC 10975): − | β-Riboside (hydrolysis) ([19]; P. mirabilis PMI 1): − | β-Riboside (hydrolysis) ([19]; P. mirabilis PMI 2): − | β-Ribofuranoside (hydrolysis) ([20]; Reference No. 1): − | β-Ribofuranoside (hydrolysis) ([20]; Reference No. 67736): − | β-Ribofuranoside (hydrolysis) ([20]; Reference No. 68350): − | β-Ribofuranoside (hydrolysis) ([21]; C. diphtheriae NCTC 3987): + | β-Ribofuranoside (hydrolysis) ([21]; C. diphtheriae NCTC 10356): ++ | β-Ribofuranoside (hydrolysis) ([21]; C. diphtheriae NCTC 11397): ++ | β-Ribofuranoside (hydrolysis) ([21]; Corynebacterium diphtheria NEQAS): ++ | Activity with the substrate ([21]; Corynebacterium diphtheriae): active | Colour of E. coli colonies [22]: intense black colonies | Colour of A. lwoffii colonies [23]: colourless | β-Riboside (hydrolysis) ([24]; K. pneumoniae KPN 2): ++ | β-Riboside (hydrolysis) ([24]; K. pneumoniae KPN 3): ++ | β-Riboside (hydrolysis) ([24]; K. pneumoniae KPN 4): ++ | β-Riboside (hydrolysis) ([24]; K. pneumoniae NCTC 10896): ++ | β-Riboside (hydrolysis) ([25]; E. aerogenes EAE 1): ++ | β-Riboside (hydrolysis) ([25]; E. aerogenes NCIMB 10102): ++ | β-Riboside (hydrolysis) ([26]; Shigella sonnei NCTC 8219): ++ | β-Riboside (hydrolysis) ([26]; Shigella sonnei NCTC 8574): ++ | β-Riboside (hydrolysis) ([26]; Shigella sonnei NCTC 8586): ++ | β-Riboside (hydrolysis) ([26]; Shigella sonnei NCTC 9774): ++ | β-Riboside (hydrolysis) ([26]; Shigella sonnei NCTC 10352): ++ | β-Riboside (hydrolysis) ([27]; E. coli ECO 2): ++ | β-Riboside (hydrolysis) ([27]; E. coli ECO 3): ++ | β-Riboside (hydrolysis) ([27]; E. coli ECO 4): ++ | β-Riboside (hydrolysis) ([27]; E. coli ECO 5): ++ | β-Riboside (hydrolysis) ([27]; E. coli ECO 6): ++ | β-Riboside (hydrolysis) ([27]; E. coli ECO 7): ++ | β-Riboside (hydrolysis) ([27]; E. coli ECO 8): ++ | β-Riboside (hydrolysis) ([27]; E. coli ECO 9): ++ | β-Riboside (hydrolysis) ([27]; E. coli ECO 10): ++ | β-Riboside (hydrolysis) ([27]; E. coli ECO 11): ++ | β-Riboside (hydrolysis) ([27]; E. coli ECO 12): ++ | β-Riboside (hydrolysis) ([27]; E. coli NCTC 10418): ++ | Share of strains that hydrolysed the substrate [28]: 68.3% | Share of strains active with the substrate [29]: 30.8%
